The results in this text go back to the NIST ThermoML archive (doi:10.1016/j.jct.2005.04.005).

One may read the mass density as the mass of a sample divided by its volume. Usually speed of sound stands for how fast a sound wave travels through the sample.

± gives the expanded uncertainty stated by the source.

Data set [1] in a line: mn = molality of the nth substance listed, in mol/kg. Conditions: 101 kPa, Liquid.
The conditions of data set [2]: 298.15 K; 101 kPa; Liquid.

On to `ClC(Cl)(Cl)Cl` [tetrachloromethane] + C1COCCOCCOCCOCCOCCO1, for which, in data set [1] (298.15 K, m2 = 0), the mass density is given as 1584.35 ± 2.2 kg/m3 and the speed of sound turned out to be 921.5 ± 1.7 m/s.

Turning to `ClC(Cl)(Cl)Cl` [tetrachloromethane], in data set [2], the mass density was determined as 1584.35 ± 2.2 kg/m3 and the speed of sound is recorded as 921.5 ± 1.7 m/s.

For the compound `C1COCCOCCOCCOCCOCCO1` [1,4,7,10,13,16-hexaoxacyclooctadecane] + ClC(Cl)(Cl)Cl, the mass density in data set [1] (298.15 K, m1 = 0.0896) is 1569.55 ± 2.1 kg/m3; in data set [1] (298.15 K, m1 = 0.1666), 1557.54 ± 2.1 kg/m3; in data set [1] (298.15 K, m1 = 0.3643) it was 1529.41 ± 2 kg/m3; in data set [1] (298.15 K, m1 = 0.5719) it was 1503.47 ± 1.9 kg/m3; in data set [1] (298.15 K, m1 = 0.8185) it was 1476.37 ± 1.8 kg/m3; in data set [1] (298.15 K, m1 = 1.013) it was 1457.02 ± 1.8 kg/m3. The speed of sound in data set [1] (298.15 K, m1 = 0.0896) stood at 932.5 ± 1.7 m/s; in data set [1] (298.15 K, m1 = 0.1666) it was 941.9 ± 1.7 m/s; in data set [1] (298.15 K, m1 = 0.3643), 965.4 ± 1.8 m/s; in data set [1] (298.15 K, m1 = 0.5719) it was 989.2 ± 1.8 m/s; in data set [1] (298.15 K, m1 = 0.8185), 1015.6 ± 1.8 m/s; in data set [1] (298.15 K, m1 = 1.013), 1034.2 ± 1.8 m/s.

Turning to `O` [water] + C1COCCOCCOCCOCCOCCO1, the mass density in data set [1] (295.15 K, m2 = 0) is given as 997.773 ± 0.6 kg/m3; in data set [1] (297.15 K, m2 = 0), 997.299 ± 0.6 kg/m3; in data set [1] (299.15 K, m2 = 0) it was 996.786 ± 0.6 kg/m3; in data set [1] (301.15 K, m2 = 0), 996.236 ± 0.61 kg/m3.
